Test results: US20100279935A1, “COMPOSITIONS FOR INDUCING LABOR AND ASSOCIATED METHODS” (priority 2007, published 2010)
Entries after “also recorded” stand apart in the source; their conditions may differ.

Experiments:
Type in all cases: cell-based, human
[1] = test system: myosin light chain phosphorylation (Ser19) in hTERT cells; test: Western blot for phosphorylated myosin light chain at Ser19
Procedure: (§1) Telomerase immortalized myometrial cells (hTert) were maintained in DMEM/F12 (Mediatech) medium with 10% FBS (Hyclone) with penicillin/streptomycin and gentamycin at 37° C. and 5% CO2. Cells were trypsinized at 90% confluency and plated in T175 cell culture flasks at a 1:5 dilution or 6 well plates at 20,000 cells per well. For pharmacological experiments cells were treated with iodo-melatonin (Tocris; USA), oxytocin (Sigma-Aldrich; USA) or cotreated as described in the Results. Pharmacological inhibitors, 4-phenyl-2-propionamidotetralin (4P-PDOT), a MT2R specific antagonist, the general PKC inhibitor C1, and the phospholipase C inhibitor, U73122 (all from Tocris) were applied as a pretreatment 1 hr prior to application of IMEL or OT. After treatment the cells were trypsinized, pelleted, washed in phosphate-buffered saline, and frozen at −20° C. until further analysis.
For in vitro investigations cultured hTERT cells were collected by trypsinization and gentle scraping. Cells were suspended in PBS and pelleted by centrifugation. Protein extraction was performed according to the method of Shearman and colleagues^15. Following electrophoretic separation on a 10% SDS-polyacrylamide gel, proteins were semi-dry blotted in buffer onto a Whatman PROTRAN Nitrocellulose membrane (Whatman; Germany). Molecular size markers (Amersham) were included. The membrane was incubated for 60 min at 20° C. in blocking buffer containing 5% milk powder before overnight incubation at 4° C. with anti-OTR, anti-MT2R (Santa Cruz Biotechnology), anti-Cx43 antiserum (Millipore) or anti-actin (Sigma) at a dilution of 1:1000 in blocking buffer. Following washing in buffer (20 mM Tris, pH 7.6+[…] NaCl+0.05% Tween-20), the membrane was incubated at 20° C. for 1 h with a peroxidase-conjugated affinity purified goat anti-rabbit immunoglobulin (Sigma) in a 1:2000 dilution. Chemiluminescent signals were then detected with the Pierce ECL Western Blotting Substrate (Pierce; USA) using CL-X Posure film (Pierce). Western blotting for phospho-myosin light chain kinase (Ser19) (Millipore) was performed with the following exceptions. Membranes were blocked with a 5% BSA/TBS solution for one hour. The primary antibody was diluted in TBS at a 1:500 dilution at 4° C. overnight with shaking. The goat anti-rabbit immunoglobulin was diluted 1:2000 in a 5% milk/TBST solution. Densitometric analysis was performed using AIS Image Analysis software (Ontario, Canada) of images acquired with a digital camera. Criterion for assessment of samples as immunonegative was the absence of a band after 1 hr of exposure. Western blots were repeated a minimum of three times to insure reproducibility.

[2] = test system: hTERT myometrial smooth muscle cells; test: Myometrial cell contractility assay (collagen disk retraction); conditions: for effect of inhibitor on contractility of cells treated with OT, I-MEL or both: pretreatment 1 hr, 4P-PDOT 10 nM, C1 10 μM, U73122 concentration not given
Procedure: as §1
Myometrial cell contractility was assayed using a collagen disk retraction assay as described by Devost and Zingg^16 plating 10,000 hTERT cells per well. Samples were treated as described in the Results and each treatment was performed in triplicate. Myometrial cell contractility was quantified by capturing images of the fixed collagen disks with a digital camera and analyzing for total area using AIS Image Analysis Software (Ontario, Canada). The results were normalized to the cell-free control sample areas and expressed as a percentage of untreated control area.

[3] = test system: connexin 43 mRNA in hTERT cells; test: Quantitative PCR of Cx43 mRNA; conditions: for effect of inhibitor on I-MEL-induced Cx43 expression: co-treatment with I-MEL (FIG. 3C)
Procedure: as §1
Cellular total RNA was extracted with the RNEasy® kit (QIAGEN; Valencia, Calif., USA) according to the manufacturer's protocol. The RNA concentration was measured with the Nanodrop® photometer and then reverse transcribed to cDNA by means of the iScript® reverse transcription system (Bio-Rad Laboratories; USA). Quantitative real-time PCR was performed on a Bio-Rad iCycler® using iQ SYBR Green Supermix® (Bio-Rad), together with 1 μl of sense and antisense primers ([…]) of the transcript of interest and 2 μl of template cDNA. The following thermal cycling parameters were used: initial heat activation of the DNA-polymerase was performed at 95° C. for 5 min. Thereafter 40 cycles at 95° C. (15 sec), 58° C. (30 sec), and 72° C. (30 sec) were run. After thermocycling the iCycler performs an automatic melting curve, which entails cooling to 55° C. for 10 sec and then increasing temperatures in 0.2° C. increments up to 90° C. This controls for primer-dimer formation and other nonspecific effects. Quantification of the data was achieved by the Bio-Rad iCycler software using a standard curve from a primer-specific dilution series for the PCR product. Data were normalized against expression of the housekeeping gene glyceraldehyde-3-phosphate dehydrogenase (GAPDH). The primer sequences used for Cx43, and GAPDH quantification are as follows: […]

[4] = test system: gap junction communication in hTERT cells; test: Lucifer yellow dye migration (scrape loading) assay
Procedure: Lucifer yellow scrape loading assays were performed in accordance with the procedures of El-Fouly et al^17. Cells were grown to confluency in […] cell culture dishes, washed with warm phosphate buffered saline (PBS) and treated with 2 mL of pre-warmed 0.05% lucifer yellow in PBS solution. The cells were then scraped by drawing a scalpel across the plate. After two minutes at room temperature the plates were washed three times with prewarmed PBS and returned to normal medium. The plates were then photographed at 10 minutes after scraping using a digital camera through a Zeiss Axiovert 40CFL Microscope at a 100× and 200× magnification. Each treatment condition was repeated three times to ensure reproducibility.

[5] = test system: connexin 43 protein in hTERT cells; test: Western blot of Cx43 protein; conditions: I-MEL-treated hTERT cells (FIG. 3B)
Procedure: as §1
For in vitro investigations cultured hTERT cells were collected by trypsinization and gentle scraping. Cells were suspended in PBS and pelleted by centrifugation. Protein extraction was performed according to the method of Shearman and colleagues^15. […] Chemiluminescent signals were then detected with the Pierce ECL Western Blotting Substrate (Pierce; USA) using CL-X Posure film (Pierce). […]

`CC[C@H](C)[C@@H]1NC(=O)[C@H](Cc2ccc(O)cc2)NC(=O)[C@@H](N)CSSC[C@@H](C(=O)N2CCC[C@H]2C(=O)N[C@@H](CC(C)C)C(=O)NCC(N)=O)NC(=O)[C@H](CC(N)=O)NC(=O)[C@H](CCC(N)=O)NC1=O` [OT, oxytocin] was tested, and the “myosin light chain phosphorylation, OT treatment” value ([1]; OT, hTERT cells (FIG. 2D)) was “increases”.

With `COc1ccc2c(c1)CC[C@@H]1[C@@H]2CC[C@]2(C)[C@@H](NCCCCCCN3C(=O)C=CC3=O)CC[C@@H]12` [U73122] the “effect of inhibitor on contractility of cells treated with OT, I-MEL or both” value [2] was “completely abolished contractility” and the “effect of inhibitor on I-MEL-induced Cx43 expression” value [3] was “abolished the effect of I-MEL on Cx43 expression”.

`CCC(=O)NC1Cc2ccccc2C(c2ccccc2)C1` (centres unmarked) [4P-PDOT, 4-phenyl-2-propionamidotetralin] was tested, and the “effect of inhibitor on contractility of cells treated with OT, I-MEL or both” value [2] was “reduced the synergistic effect of I-MEL to levels corresponding to treatment with OT alone”, the “effect of inhibitor pretreatment on I-MEL-induced myosin light chain phosphorylation” value ([1]; 10 nM 4P-PDOT or 10 μM C1 pretreatment) was “abolished” and the “effect of inhibitor pretreatment on I-MEL-increased dye spread” value ([4]; 10 nM 4P-PDOT or 10 μM C1 before I-MEL) was “blocked”. For the same compound, the “dye migration, inhibitor alone” value ([4]; 4P-PDOT or C1 alone, data not shown) was “dye migration comparable to control levels” and the “effect of inhibitor on I-MEL-induced Cx43 expression” value [3] was “abolished the effect of I-MEL on Cx43 expression”.

In the case of `COc1ccc2[nH]c(I)c(CCNC(C)=O)c2c1` [I-MEL, iodo-melatonin], the “increase in contractility compared to treatment with OT alone” value ([2]; co-treatment 1 nM I-MEL and 1 nM OT, hTERT cells) is reported as “two-fold”, the “contractility by I-MEL alone” value ([2]; hTERT cells, I-MEL without OT) is reported as “modest increases in hTERT contractility” and the “effect of I-MEL on OT-induced contractility and sensitivity to OT” value ([2]; hTERT cells, OT co-treated with I-MEL (FIG. 2A)) is reported as “increase OT-induced contractility in a dose dependent manner”. The “effect of I-MEL on OT-induced myosin light chain phosphorylation” value ([1]; 1 nM I-MEL with OT, hTERT cells (FIG. 2D)) was “increased dramatically”, the “myosin light chain phosphorylation, I-MEL treatment alone” value ([1]; 1 nM I-MEL, hTERT cells (FIG. 2D)) was “modest increases in myosin light chain phosphorylation” and the “cell coupling / spread of lucifer yellow dye” value ([4]; 1 nM I-MEL pretreated hTERT cells, 10 minutes after scrape loading) was “increased levels of cell coupling”. For the same compound, the “Cx43 mRNA levels after 4 hrs” value ([3]; 1 nM I-MEL, 4 hrs, hTERT cells) was “significant, but transient increases; also recorded: elevated”, the “Cx43 mRNA levels after 8 hrs” value ([3]; 1 nM I-MEL, 8 hrs, hTERT cells) was “returned to untreated levels” and the Cx43 protein levels [5] was “upregulation of Cx43 protein levels”.
